According to publication PMC11320734 (ACS Pharmacology & Translational Science, 2024):
Where “and” joins values, the source holds several entries; their conditions need not be identical. Equal entries are not always repeated. Where two headings read alike, the source gives them in different places.

Columns and labels:
[1] = pKa; format: physicochemical; details: basic nitrogen N1 of the pyrazole ring
[2] = target: canine CB2R (Canis lupus familiaris, UniProt E2RKA3); experiment: cAMP assay in CHO cells; format: cell-based; details: mean ± SD; read-out: EC50 cAMP assay, dog CB2R
canine CB2R, sequence (E2RKA3 1-360): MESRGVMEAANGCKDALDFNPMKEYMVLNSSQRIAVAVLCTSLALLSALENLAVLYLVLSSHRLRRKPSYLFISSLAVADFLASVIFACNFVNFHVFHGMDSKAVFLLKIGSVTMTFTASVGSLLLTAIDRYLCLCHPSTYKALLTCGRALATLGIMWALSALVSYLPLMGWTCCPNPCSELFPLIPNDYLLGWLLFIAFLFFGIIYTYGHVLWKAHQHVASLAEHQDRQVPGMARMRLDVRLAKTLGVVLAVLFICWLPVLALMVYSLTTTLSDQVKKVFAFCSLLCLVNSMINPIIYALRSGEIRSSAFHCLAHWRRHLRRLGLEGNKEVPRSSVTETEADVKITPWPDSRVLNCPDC

[3] = Octanol/water distribution coefficient (logD), CAMDIS assay; format: physicochemical
Protocol: For the determination of the octanol/water distribution coefficient (logD), the carrier-mediated distribution system (CAMDIS)-assay was used as described elsewhere.[38] Kinetic and thermodynamic solubilities were assessed using the lyophilization solubility assay (LYSA) and thermodynamic solubility assay (THESA), respectively. For the LYSA, the solubility of RNB- 61 in phosphate buffer at pH 6.5 from an evaporated 10 mM DMSO compound stock solution was measured. Two aliquots of the test compounds were dried and dissolved in phosphate buffer at pH 6.5. The solutions were then filtered and diluted (3 different dilution levels for each compound) before high throughput mass spectrometry (MS) analysis was performed in an Agilent RapidFire system. Each test compound was quantified using a 6-point calibration curve prepared with the same DMSO starting solution. For THESA, RNB-61 (8.6 mg per mL solvent/vehicle) was stirred in HPLC vials (9 × 12 × 32 mm, Waters) at 350 rpm for 15 h. The presence of solid particles was determined by microscopic analysis of 10 μL samples. If the active pharmacological ingredient (API) was completely dissolved, more solid API was added before stirring for another 15 h. This step was repeated for up to 96 h or until residual solid particles could be detected. Samples (0.5 mL) were transferred to Eppendorf Ultrafree filter tubes (Filter: PVDF 0.22 μm) and centrifuged at 14,500 rpm for 10 min. The filtrates were diluted in ethanol and analyzed by ultra-performance liquid chromatography (UPLC). Measurements were repeated in 0.05 M aqueous phosphate buffer and in fasted (FaSSIF) and fed (FeSSIF) simulated gastrointestinal fluids.

[4] = target: MAGL (Homo sapiens, UniProt Q99685); experiment: Endocannabinoid target profiling: MAGL; format: biochemical
MAGL, sequence (Q99685 whole entry, species assumed): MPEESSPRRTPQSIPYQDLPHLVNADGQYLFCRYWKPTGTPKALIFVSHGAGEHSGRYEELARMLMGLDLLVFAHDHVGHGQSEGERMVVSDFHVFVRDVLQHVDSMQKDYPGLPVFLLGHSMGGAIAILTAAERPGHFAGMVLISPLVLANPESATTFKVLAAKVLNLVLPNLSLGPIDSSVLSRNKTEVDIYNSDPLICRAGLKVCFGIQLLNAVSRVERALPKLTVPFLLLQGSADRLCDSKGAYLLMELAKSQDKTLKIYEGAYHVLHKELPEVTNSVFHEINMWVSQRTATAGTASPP

[5] = target: T1, mouse CB2R (Mus musculus, UniProt P47936); experiment: cAMP assay in CHO cells; format: cell-based; details: mean ± SD
T1 construct: expressed in transfected cells; host or cells: CHO cells
T1 sequence (P47936 whole entry): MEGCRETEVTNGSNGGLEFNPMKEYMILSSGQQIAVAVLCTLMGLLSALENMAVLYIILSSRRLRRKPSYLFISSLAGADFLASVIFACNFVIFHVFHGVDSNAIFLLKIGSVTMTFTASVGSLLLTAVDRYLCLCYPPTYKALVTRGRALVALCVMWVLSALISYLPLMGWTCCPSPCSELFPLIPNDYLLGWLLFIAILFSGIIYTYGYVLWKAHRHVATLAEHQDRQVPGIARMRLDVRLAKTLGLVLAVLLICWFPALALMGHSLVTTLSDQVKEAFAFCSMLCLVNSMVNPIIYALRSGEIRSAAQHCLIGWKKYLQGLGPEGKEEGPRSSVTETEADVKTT

[6] = target: T2, hCB1R (Homo sapiens, UniProt P21554); experiment: Competition binding assay with [3H]-CP55940, HEK cell membranes; details: read-out: Ki hCB1R (binding assay); [3H]-CP55940 competition; mean ± SD
T2 sequence (P21554 whole entry): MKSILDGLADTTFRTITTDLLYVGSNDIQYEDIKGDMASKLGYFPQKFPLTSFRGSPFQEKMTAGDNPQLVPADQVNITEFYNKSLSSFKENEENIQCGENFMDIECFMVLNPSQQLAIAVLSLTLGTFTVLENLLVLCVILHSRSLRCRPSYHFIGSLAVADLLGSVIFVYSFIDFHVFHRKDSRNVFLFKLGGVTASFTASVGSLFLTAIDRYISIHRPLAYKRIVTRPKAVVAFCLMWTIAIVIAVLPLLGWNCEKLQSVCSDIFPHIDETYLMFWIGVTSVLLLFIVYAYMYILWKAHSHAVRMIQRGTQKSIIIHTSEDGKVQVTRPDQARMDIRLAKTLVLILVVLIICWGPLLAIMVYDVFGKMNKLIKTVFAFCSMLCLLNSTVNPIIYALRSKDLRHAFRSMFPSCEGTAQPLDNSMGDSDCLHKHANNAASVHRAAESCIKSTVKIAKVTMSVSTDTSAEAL
Protocol: Competition and saturation binding assays were performed using the radiolabeled CB1R/CB2R agonist [^3H]-CP55940 (PerkinElmer).
Binding reactions were terminated by vacuum filtration onto 0.5% polyethylenimine presoaked GF/B filter plates (Packard) using a Filtermate cell harvester followed by 6 brief washes with 0.3 mL/well of ice-cold wash buffer. Wash buffer comprising 50 mmol L^–1 Tris- HCl, 5 mmol L^–1 MgCl2, 2.5 mmol L^–1 EDTA, and 0.5% fatty acid-free BSA, pH 7.4. Plates were dried at 50 °C for 1 h and liquid scintillation counting was used to determine levels of bound radiolabel. IC50 values and Hill slopes were determined with a 4-parameter logistic model using ActivityBase (ID Business Solution, Guilford, UK) and pKi values were determined using the Cheng–Prusoff equation as shown below: [drawing 1] where S indicates the concentration of the substrate and Km depicts the affinity constant of the substrate.

[7] = Single-dose pharmacokinetics in mice; format: in vivo; details: mouse, plasma
Protocol: To characterize the pharmacokinetic behavior of RNB-61, studies in rodents were conducted at the in vivo facility of F. Hoffmann-La Roche Ltd. (Basel, Switzerland). The plasma-concentration time profile was studied in rodents after single-dose RNB-61 administration by oral gavage (p.o. microsuspension excipients 7.5% gelatin/0.62% NaCl) and intravenous bolus injection (i.v. solution, excipients NMP:NaCl (30:70)). Three groups of male Wistar rats (n = 2 per group) were administered RNB-61 either at 1 mg kg^–1 i.v., 3 mg kg^–1 p.o., or 26 mg kg^–1 p.o. Plasma samples were drawn at 0.083, 0.25, 0.5, 1, 2, 4, 8, and 24 postdose in the i.v. group and at 0.25, 0.5, 0.75, 1.5, 3, 5, 8, and 24 h postdose in the p.o. groups. The samples were analyzed for RNB-61 concentration by LC/MS-MS. For the LC/MS-MS analysis, and the samples were prepared by adding 100 uL to 400 uL ACN with ISTD (100 ng/mL Bosantan in ACN/MeOH 1/1), stirring, and centrifuging (4000 rpm, 65’). 100 uL of the supernatant were pipetted and diluted with 400 μL H2O at pH 3. The analytes were separated on a Restek C18 column (5 μm, 1.0 × 3 mm). The mobile phase consisted of water containing 0.1% HCOOH as solvent A and ACN containing 0.1% HCOOH as solvent B. The gradient curve starting with 5% B was changed to 90% B between 0.4 and 0.6 min and further increased to 95% B between 0.6 and 1.2 min. This was maintained until 1.4 min and then reduced and kept at 5% B between 1.45 and 2.0 min. The mass spectrometer was operated in the positive mode. All LC-MS/MS was done using the Agilent RapidFire Analyzer software (version 4.3). The pharmacokinetic parameters were estimated by noncompartmental analysis in the Certara WinNonlin software (version 5.3). A similar study design was run in mice with three groups receiving 2 mg kg^–1 i.v., 4 mg kg^–1 p.o., or 26 mg kg^–1 p.o., and plasma sampling occurring in a composite profile (n = 2 for each time point) up to 7 or 24 h postdose. Male C57/BL6 mice (n = 5 per group) were used to study the influence of P-gp efflux on brain penetration. Two groups of mice were administered RNB-61 by i.v. bolus injection at 1 mg kg^–1 (2 groups). In order to block P-gp activity, an i.v. bolus of 5 mg kg^–1 tariquidar[46] was injected into one group 30 min prior to RNB-61. Plasma was collected at 0.083, 0.25, 0.5, 2, 4, and 7 h postdose in a composite profile. Brain, CSF, and vitreous body were collected at terminal time points 0.5, 2, 4, and 7 h postdose.

[8] = target: TRPA1 (Homo sapiens, UniProt O75762); experiment: Endocannabinoid target profiling: TRPA1; details: Table S1; read-out: TRPA1 (Ki, IC50)
TRPA1, sequence (O75762 whole entry, species assumed): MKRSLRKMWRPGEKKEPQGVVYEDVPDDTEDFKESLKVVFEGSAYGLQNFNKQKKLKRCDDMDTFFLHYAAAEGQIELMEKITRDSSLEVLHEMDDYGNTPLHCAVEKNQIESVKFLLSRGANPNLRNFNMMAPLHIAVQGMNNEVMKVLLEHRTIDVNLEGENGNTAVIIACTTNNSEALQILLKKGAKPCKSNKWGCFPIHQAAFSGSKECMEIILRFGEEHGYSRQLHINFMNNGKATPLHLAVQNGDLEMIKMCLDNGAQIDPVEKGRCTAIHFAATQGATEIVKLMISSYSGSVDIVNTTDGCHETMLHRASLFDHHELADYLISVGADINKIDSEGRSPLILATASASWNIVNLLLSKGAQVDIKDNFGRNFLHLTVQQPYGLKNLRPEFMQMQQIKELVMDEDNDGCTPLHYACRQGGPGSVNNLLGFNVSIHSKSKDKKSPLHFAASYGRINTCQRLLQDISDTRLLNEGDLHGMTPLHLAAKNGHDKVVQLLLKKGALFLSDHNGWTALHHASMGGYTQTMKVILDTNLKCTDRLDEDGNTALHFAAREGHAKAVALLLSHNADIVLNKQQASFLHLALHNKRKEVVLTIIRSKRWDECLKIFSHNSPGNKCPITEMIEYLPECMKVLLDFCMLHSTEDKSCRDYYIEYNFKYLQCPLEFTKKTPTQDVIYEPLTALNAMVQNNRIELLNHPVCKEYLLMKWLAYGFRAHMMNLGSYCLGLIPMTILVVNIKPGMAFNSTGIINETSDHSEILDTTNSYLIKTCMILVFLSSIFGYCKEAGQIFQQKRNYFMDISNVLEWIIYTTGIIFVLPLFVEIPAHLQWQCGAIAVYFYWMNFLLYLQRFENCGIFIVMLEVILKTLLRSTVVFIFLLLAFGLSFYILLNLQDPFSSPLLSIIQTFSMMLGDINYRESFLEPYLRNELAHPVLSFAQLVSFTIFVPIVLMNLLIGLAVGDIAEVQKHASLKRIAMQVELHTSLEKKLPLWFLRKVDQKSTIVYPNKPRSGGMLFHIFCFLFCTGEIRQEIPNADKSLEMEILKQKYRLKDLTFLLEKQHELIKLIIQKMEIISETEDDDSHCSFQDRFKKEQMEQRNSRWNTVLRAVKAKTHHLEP

[9] = target: human wild type CB2R (Homo sapiens, UniProt P34972); experiment: [35S]GTPγS binding assay (G-protein activation); format: biochemical; design: host or cells: CHO cells (Pathhunter)
human wild type CB2R, sequence (P34972 whole entry): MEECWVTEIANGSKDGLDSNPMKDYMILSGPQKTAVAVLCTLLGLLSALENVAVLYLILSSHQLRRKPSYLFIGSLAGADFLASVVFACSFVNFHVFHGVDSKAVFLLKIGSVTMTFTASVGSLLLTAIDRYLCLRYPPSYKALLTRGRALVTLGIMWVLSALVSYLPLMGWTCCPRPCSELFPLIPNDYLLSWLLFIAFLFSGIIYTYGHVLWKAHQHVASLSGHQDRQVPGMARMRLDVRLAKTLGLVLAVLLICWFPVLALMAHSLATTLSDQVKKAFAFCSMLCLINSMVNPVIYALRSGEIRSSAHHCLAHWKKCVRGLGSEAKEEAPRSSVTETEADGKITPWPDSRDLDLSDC

[10] = target: T2, hCB1R; experiment: cell-based; details: Table 1; mean ± SD; read-out: EC50 hCB1R (cAMP assay)
[11] = expressed as percentage, compared with CP55,940

Question: With `Cn1c(C(C)(C)C)cc(=NC(=O)c2cc(C(F)(F)F)ccc2OCC(C)(C)O)n1CC1CCC1` [RNB-61] as the compound, how does the pKa [1] read?
Answer: 7.33

Question: And the pKa ([1]; read-out: pKa)?
Answer: 7.37

Question: What about the EC50 [2] of the same compound?
Answer: 1.86 ± 1.58 nM

Question: What about the logD ([3]; Table 3, read-out: clogP (cell says logD)) of the same compound?
Answer: 3.34

Question: What about the logD ([3]; octanol/water, read-out: logD) of the same compound?
Answer: 3.3

Question: And the IC50 ([4]; Table S1, read-out: MAGL (Ki, IC50))?
Answer: > 10000 nM

Question: And the “inhibition of EC hydrolysis by MAGL” value ([4]; screening concentration 10 μM)?
Answer: did not inhibit

Question: And the EC50 [5]?
Answer: 0.25 ± 0.13 nM

Question: And the Ki [6]?
Answer: 3880 ± 73.4 nM

Question: And the AUC(0-inf) ([7]; iv, 2 mg kg^–1 i.v.)?
Answer: 8630 ng·h/mL

Question: What about the Cmax ([7]; iv, 2 mg kg^–1 i.v.) of the same compound?
Answer: 1170 ng/mL

Question: And the Tmax ([7]; iv, 2 mg kg^–1 i.v.)?
Answer: 0.25 h

Question: And the clearance ([7]; iv, 2 mg kg^–1 i.v.)?
Answer: 3.9 mL/min/kg

Question: What about the half-life ([7]; iv, 2 mg kg^–1 i.v.) of the same compound?
Answer: 7.7 h

Question: What about the Vd ([7]; iv, 2 mg kg^–1 i.v., read-out: Vss) of the same compound?
Answer: 2.4 L/kg

Question: What about the AUC(0-inf) ([7]; po, 4 mg kg^–1 p.o.) of the same compound?
Answer: 9300 ng·h/mL

Question: And the Cmax ([7]; po, 4 mg kg^–1 p.o.)?
Answer: 843 ng/mL

Question: What about the Tmax ([7]; po, 4 mg kg^–1 p.o.) of the same compound?
Answer: 2 h

Question: What about the bioavailability ([7]; po, 4 mg kg^–1 p.o.) of the same compound?
Answer: 54%

Question: What about the half-life ([7]; po, 4 mg kg^–1 p.o.) of the same compound?
Answer: 6.4 h

Question: What about the AUC(0-inf) ([7]; po, 26 mg kg^–1 p.o.) of the same compound?
Answer: 47300 ng·h/mL

Question: And the Cmax ([7]; po, 26 mg kg^–1 p.o.)?
Answer: 4370 ng/mL

Question: What about the Tmax ([7]; po, 26 mg kg^–1 p.o.) of the same compound?
Answer: 2 h

Question: What about the bioavailability ([7]; po, 26 mg kg^–1 p.o.) of the same compound?
Answer: 42%

Question: What about the half-life ([7]; po, 26 mg kg^–1 p.o.) of the same compound?
Answer: 4.3 h

Question: And the IC50 [8]?
Answer: > 50000 nM

Question: And the EC50 ([9]; Figure 2)?
Answer: 0.33 nM and 1.65 nM

Question: What about the Emax [9, 11] of the same compound?
Answer: 100%

Question: And the “Emax [35S]GTPγS binding” value [9, 11]?
Answer: same efficacy (Emax) as CP55,940

Question: And the EC50 [10]?
Answer: > 10000 nM
